# Assay results taken from patent publication US9695155B2, “Herbicidal substituted pyrimidinyloxy benzene compounds” (E. I. DU PONT DE NEMOURS AND COMPANY, priority 2013, dated 2017).
# Tests used:
# palmer pigweed = test: Test E preemergence; type: in vivo, Amaranthus palmeri; conditions: for Pigweed, Palmer plant response rating: scale 0 to 100 (0 no effect, 100 complete control)
# From the text: (§1) Seeds of plant species selected from corn (Zea mays), soybean (Glycine max), velvetleaf (Abutilon theophrasti), lambsquarters (Chenopodium album), wild poinsettia (Euphorbia heterophylla), palmer pigweed (Amaranthus palmeri), waterhemp (common waterhemp, Amaranthus rudis), surinam grass (Brachiaria decumbens), large (Lg) crabgrass (Digitaria sanguinalis), Brazilian crabgrass (Digitaria horizontalis), fall panicum (Panicum dichotomiflorum), giant foxtail (Setaria faberii), green foxtail (Setaria viridis), goosegrass (Eleusine indica), johnsongrass (Sorghum halepense), ragweed (common ragweed, Ambrosia elatior), barnyardgrass (Echinochloa crus-galli), sandbur (southern sandbur, Cenchrus echinatus), arrowleaf sida (Sida rhombifolia), Italian ryegrass (Lolium multiflorum), dayflower (Virginia (VA) dayflower, Commelina virginica), field bindweed (Convolvulus arvensis), morningglory (Ipomoea coccinea), nightshade (eastern black nightshade, Solanum ptycanthum), kochia (Kochia scoparia), yellow nutsedge (Cyperus esculentus), cocklebur (common cocklebur, Xanthium strumarium), smartweed (ladysthumb smartweed, and hairy beggarticks (Bidens pilosa), were planted into a silt loam soil and treated preemergence with test chemicals formulated in a non-phytotoxic solvent mixture which included a surfactant.
# (§2) At the same time, plants from these crop and weed species and also horseweed (Canada horseweed, Conyza canadensis), waterhemp_RES1, (ALS & Triazine resistant common waterhemp, Amaranthus rudis), and waterhemp_RES2, (ALS & HPPD resistant common waterhemp, Amaranthus rudis) were planted in pots containing Redi-Earth® planting medium (Scotts Company, 14111 Scottslawn Road, Marysville, Ohio 43041) comprising spaghnum peat moss, vermiculite, wetting agent and starter nutrients were treated with postemergence applications of test chemicals formulated in the same manner. Plants ranged in height from 2 to 18 cm for postemergence treatments (1- to 4-leaf stage). Treated plants and controls were maintained in a greenhouse for 14 to 21 days, after which time all species were compared to controls and visually evaluated. Plant response ratings, summarized in Table E, are based on a scale of 0 to 100 where 0 is no effect and 100 is complete control. A dash (-) response means no test result.
# Brazilian crabgrass = test: Test E preemergence; type: in vivo, Digitaria horizontalis; conditions: for Crabgrass, Brazil plant response rating: scale 0 to 100 (0 no effect, 100 complete control)
# From the text: as §1, §2
# johnsongrass = test: Test E preemergence; type: in vivo, Sorghum halepense; conditions: for Johnsongrass plant response rating: scale 0 to 100 (0 no effect, 100 complete control)
# From the text: as §1, §2
# morningglory = test: Test E preemergence; type: in vivo, Ipomoea coccinea; conditions: for Morningglory plant response rating: scale 0 to 100 (0 no effect, 100 complete control)
# From the text: as §1, §2
# nightshade = test: Test E preemergence; type: in vivo, Solanum ptycanthum; conditions: for Nightshade plant response rating: scale 0 to 100 (0 no effect, 100 complete control)
# From the text: as §1, §2
# yellow nutsedge = test: Test E preemergence; type: in vivo, Cyperus esculentus; conditions: for Nutsedge, Yellow plant response rating: scale 0 to 100 (0 no effect, 100 complete control)
# From the text: as §1, §2
# hairy beggarticks [1] = test: Test E preemergence; type: in vivo, Bidens pilosa; conditions: preemergence; for Beggarticks plant response rating: scale 0 to 100 (0 no effect, 100 complete control)
# From the text: as §1, §2
# ducksalad = test: Test C flooded paddy test; type: in vivo, Heteranthera limosa; conditions: Flood, scale 0 to 100 (0 no effect, 100 complete control), 13 to 15 days
# Procedure, shortened: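 Compound was added to standing water 3 cm above soil, flood maintained, and plants held in a greenhouse before visual scoring against controls at 13 to 15 days.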
# soybean = test: Test E postemergence; type: in vivo, Glycine max
# Procedure, shortened: (§3)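 Response was scored visually on a 0-100 scale (100 = complete control) versus controls after 14 to 21 days in the greenhouse. Test chemicals, formulated with surfactant in a non-phytotoxic solvent mixture, had been applied preemergence to seeds in silt loam soil or postemergence to 1- to 4-leaf plants in potting medium.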
# sandbur = test: Test E postemergence; type: in vivo, Cenchrus echinatus
# From the text: as §1, §2
# dayflower = test: Test E postemergence; type: in vivo, Commelina virginica
# Procedure, shortened: as §3
# field bindweed = test: Test E postemergence; type: in vivo, Convolvulus arvensis
# From the text: as §1, §2
# hairy beggarticks [2] = test: Test E postemergence; type: in vivo, Bidens pilosa
# From the text: as §1, §2
# [3] = 8 g ai/ha, scale 0 to 100, 0 is no effect, 100 is complete control
# [4] = 125 g ai/ha, scale 0 to 100, 0 no effect, 100 complete control
# [5] = Postemergence, 31 g ai/ha, scale 0 to 100
# [6] = Postemergence, 62 g ai/ha, scale 0 to 100
# [7] = Postemergence, 125 g ai/ha, scale 0 to 100
# [8] = postemergence, 8 g ai/ha, scale 0 to 100, 0 no effect, 100 complete control
# [9] = postemergence, 16 g ai/ha, scale 0 to 100, 0 no effect, 100 complete control
# [10] = 250 g ai/ha, scale 0 to 100, 0 no effect, 100 complete control
structure (smiles),measurement,setting,value
FC(F)c1cccc(Oc2ncc(Cl)cn2)c1-n1cc(C(F)(F)F)cn1 [Compound 170],"Plant response rating, Pigweed, Palmer",palmer pigweed; [3],0
same,"Pigweed, Palmer plant response rating",palmer pigweed; 31 g ai/ha,95
same,"Pigweed, Palmer plant response rating",palmer pigweed; 62 g ai/ha,100
same,"Plant response rating, Pigweed, Palmer",palmer pigweed; [4],100
same,"Plant response rating, Crabgrass, Brazil",Brazilian crabgrass; [3],30
same,"Crabgrass, Brazil plant response rating",Brazilian crabgrass; 16 g ai/ha,40
same,"Crabgrass, Brazil plant response rating",Brazilian crabgrass; 31 g ai/ha,100
same,"Crabgrass, Brazil plant response rating",Brazilian crabgrass; 62 g ai/ha,100
same,"Plant response rating, Crabgrass, Brazil",Brazilian crabgrass; [4],100
same,"Plant response rating, Johnsongrass",johnsongrass; [3],15
same,Johnsongrass plant response rating,johnsongrass; 31 g ai/ha,15
same,Johnsongrass plant response rating,johnsongrass; 62 g ai/ha,25
same,"Plant response rating, Johnsongrass",johnsongrass; [4],70
same,"Plant response rating, Morningglory",morningglory; [3],0
same,Morningglory plant response rating,morningglory; 31 g ai/ha,10
same,Morningglory plant response rating,morningglory; 62 g ai/ha,35
same,"Plant response rating, Morningglory",morningglory; [4],95
same,"Plant response rating, Nightshade",nightshade; [3],0
same,Nightshade plant response rating,nightshade; 31 g ai/ha,50
same,Nightshade plant response rating,nightshade; 62 g ai/ha,98
same,"Plant response rating, Nightshade",nightshade; [4],98
same,"Plant response rating, Nutsedge, Yellow",yellow nutsedge; [3],0
same,"Nutsedge, Yellow plant response rating",yellow nutsedge; 31 g ai/ha,20
same,"Nutsedge, Yellow plant response rating",yellow nutsedge; 62 g ai/ha,30
same,"Plant response rating, Nutsedge, Yellow",yellow nutsedge; [4],40
same,"Plant response rating, Beggarticks",hairy beggarticks [1]; [3],0
same,Beggarticks plant response rating,hairy beggarticks [1]; 16 g ai/ha,0
same,Beggarticks plant response rating,hairy beggarticks [1]; 31 g ai/ha,0
same,Beggarticks plant response rating,hairy beggarticks [1]; 62 g ai/ha,0
same,"Plant response rating, Beggarticks",hairy beggarticks [1]; [4],0
NC(=S)c1cccc(Oc2ncc(Cl)cn2)c1-n1cc(Cl)cn1 [Compound 292],"Plant response rating, Pigweed, Palmer",palmer pigweed; [3],0
same,"Pigweed, Palmer plant response rating",palmer pigweed; 31 g ai/ha,35
same,"Pigweed, Palmer plant response rating",palmer pigweed; 62 g ai/ha,100
same,"Plant response rating, Pigweed, Palmer",palmer pigweed; [4],100
same,"Plant response rating, Crabgrass, Brazil",Brazilian crabgrass; [3],0
same,"Crabgrass, Brazil plant response rating",Brazilian crabgrass; 16 g ai/ha,10
same,"Crabgrass, Brazil plant response rating",Brazilian crabgrass; 31 g ai/ha,40
same,"Crabgrass, Brazil plant response rating",Brazilian crabgrass; 62 g ai/ha,100
same,"Plant response rating, Crabgrass, Brazil",Brazilian crabgrass; [4],100
same,"Plant response rating, Johnsongrass",johnsongrass; [3],0
same,Johnsongrass plant response rating,johnsongrass; 31 g ai/ha,15
same,Johnsongrass plant response rating,johnsongrass; 62 g ai/ha,20
same,"Plant response rating, Johnsongrass",johnsongrass; [4],35
same,"Plant response rating, Morningglory",morningglory; [3],0
same,Morningglory plant response rating,morningglory; 31 g ai/ha,0
same,Morningglory plant response rating,morningglory; 62 g ai/ha,15
same,"Plant response rating, Morningglory",morningglory; [4],50
same,"Plant response rating, Nightshade",nightshade; [3],0
same,Nightshade plant response rating,nightshade; 31 g ai/ha,5
same,Nightshade plant response rating,nightshade; 62 g ai/ha,70
same,"Plant response rating, Nightshade",nightshade; [4],80
same,"Plant response rating, Nutsedge, Yellow",yellow nutsedge; [3],0
same,"Nutsedge, Yellow plant response rating",yellow nutsedge; 31 g ai/ha,0
same,"Nutsedge, Yellow plant response rating",yellow nutsedge; 62 g ai/ha,15
same,"Plant response rating, Nutsedge, Yellow",yellow nutsedge; [4],35
same,"Plant response rating, Beggarticks",hairy beggarticks [1]; [3],0
same,Beggarticks plant response rating,hairy beggarticks [1]; 16 g ai/ha,0
same,Beggarticks plant response rating,hairy beggarticks [1]; 31 g ai/ha,15
same,Beggarticks plant response rating,hairy beggarticks [1]; 62 g ai/ha,15
same,"Plant response rating, Beggarticks",hairy beggarticks [1]; [4],35
FC(F)(F)c1cnn(-c2c(Br)cccc2Oc2ncc(Cl)cn2)c1 [Compound 191],"Plant response rating, Ducksalad",ducksalad; 31 g ai/ha,30
same,"Plant response rating, Ducksalad",ducksalad; 62 g ai/ha,50
same,"Plant response rating, Ducksalad",ducksalad; 125 g ai/ha,75
same,"Plant response rating, Ducksalad",ducksalad; 250 g ai/ha,80
same,"Plant response rating, Soybean",soybean; [5],60
same,"Plant response rating, Soybean",soybean; [6],50
same,"Plant response rating, Soybean",soybean; [7],95
same,"Plant response rating, Soybean",soybean; [8],20
same,"Plant response rating, Soybean",soybean; [9],30
same,"Plant response rating, Sandbur",sandbur; [5],0
same,"Plant response rating, Sandbur",sandbur; [6],0
same,"Plant response rating, Sandbur",sandbur; [7],10
same,"Plant response rating, Sandbur",sandbur; [8],0
same,"Plant response rating, Sandbur",sandbur; [9],0
same,"Plant response rating, Dayflower, VA",dayflower; [5],5
same,"Plant response rating, Dayflower, VA",dayflower; [6],10
same,"Plant response rating, Dayflower, VA",dayflower; [7],10
same,"Plant response rating, Dayflower, VA",dayflower; [8],0
same,"Plant response rating, Dayflower, VA",dayflower; [9],0
same,"Plant response rating, Field Bindweed",field bindweed; [5],50
same,"Plant response rating, Field Bindweed",field bindweed; [6],40
same,"Plant response rating, Field Bindweed",field bindweed; [7],50
same,"Plant response rating, Field Bindweed",field bindweed; [8],20
same,"Plant response rating, Field Bindweed",field bindweed; [9],40
same,"Plant response rating, Beggarticks",hairy beggarticks [2]; [5],40
same,"Plant response rating, Beggarticks",hairy beggarticks [2]; [6],50
same,"Plant response rating, Beggarticks",hairy beggarticks [2]; [7],50
same,"Plant response rating, Beggarticks",hairy beggarticks [2]; [8],10
same,"Plant response rating, Beggarticks",hairy beggarticks [2]; [9],20
Cc1cnc(Oc2cccc(C#N)c2-n2cc(C(F)(F)F)cn2)nc1 [Compound 180],"Pigweed, Palmer plant response rating",palmer pigweed; 31 g ai/ha,0
same,"Pigweed, Palmer plant response rating",palmer pigweed; 62 g ai/ha,0
same,"Plant response rating, Pigweed, Palmer",palmer pigweed; [4],75
same,"Plant response rating, Pigweed, Palmer",palmer pigweed; [10],90
same,"Crabgrass, Brazil plant response rating",Brazilian crabgrass; 31 g ai/ha,90
same,"Crabgrass, Brazil plant response rating",Brazilian crabgrass; 62 g ai/ha,100
same,"Plant response rating, Crabgrass, Brazil",Brazilian crabgrass; [4],100
same,"Plant response rating, Crabgrass, Brazil",Brazilian crabgrass; [10],100
same,Johnsongrass plant response rating,johnsongrass; 31 g ai/ha,0
same,Johnsongrass plant response rating,johnsongrass; 62 g ai/ha,50
same,"Plant response rating, Johnsongrass",johnsongrass; [4],75
same,"Plant response rating, Johnsongrass",johnsongrass; [10],80
same,Morningglory plant response rating,morningglory; 31 g ai/ha,0
same,Morningglory plant response rating,morningglory; 62 g ai/ha,15
same,"Plant response rating, Morningglory",morningglory; [4],60
same,"Plant response rating, Morningglory",morningglory; [10],100
same,Nightshade plant response rating,nightshade; 31 g ai/ha,75
same,Nightshade plant response rating,nightshade; 62 g ai/ha,98
same,"Plant response rating, Nightshade",nightshade; [4],98
same,"Plant response rating, Nightshade",nightshade; [10],100
same,"Nutsedge, Yellow plant response rating",yellow nutsedge; 31 g ai/ha,0
same,"Nutsedge, Yellow plant response rating",yellow nutsedge; 62 g ai/ha,30
same,"Plant response rating, Nutsedge, Yellow",yellow nutsedge; [4],60
same,"Plant response rating, Nutsedge, Yellow",yellow nutsedge; [10],75
same,Beggarticks plant response rating,hairy beggarticks [1]; 31 g ai/ha,10
same,Beggarticks plant response rating,hairy beggarticks [1]; 62 g ai/ha,20
same,"Plant response rating, Beggarticks",hairy beggarticks [1]; [4],40
same,"Plant response rating, Beggarticks",hairy beggarticks [1]; [10],90
